According to patent publication EP4617273A1, “FUSED TRICYCLIC PARP1 INHIBITOR, PREPARATION METHOD THEREFOR, AND USE THEREOF” (Haihe Biopharma Co., Ltd., priority 2022, dated 2024):
Read-outs that look alike come from different tables or passages of the source.

Columns and labels:
MDR1 = experiment: MDR1-MDCK II cell model of bidirectional permeability; type: in vitro ADME; conditions: dog, 2 µM, 2.5 h; for Papp A→B at 2.5 h, 2 µM: apical-to-basolateral; for Papp B→A at 2.5 h, 2 µM: basolateral-to-apical
Method: (§1) 2 µM of the test compound was added to the wells at the apical side or the basolateral side of the monolayer of cells and incubated for 2.5 h at 37.0°C in a 5.0% CO2 incubator. Cell monolayer integrity was determined by Lucifer yellowrejection assay. The buffer was removed from the apical side and basolateral side, and the concentration of the subject compounds was determined using LC-MS/MS. The concentration data were used to calculate the apparent permeabilitycoefficients of apical-to-basolateral (A-B) and basolateral-to-apical (B-A)side, and to calculate efflux ratio with the formula: Efflux Ratio = Papp (B-A) / Papp (A-B) Table 3. bidirectional permeability of MDR1-MDCK II cells for compounds of the present invention

MDR1 (P-gp) = experiment: as above; type: in vitro ADME; conditions: dog, Efflux Ratio = Papp (B-A) / Papp (A-B), read-out: ER ratio
Method: as §1

MDA-MB-436 cells = experiment: MDA-MB-436 cell proliferation inhibition test (CellTiter-Glo, 7 days); type: cell-based; conditions: Homo sapiens, MDA-MB-436, 168 h, 7 days incubation
Method: Human breast cancer MDA-MB-436 (purchased from ATCC) cells were cultured in DMEM medium (supplemented with 10% fetal bovine serum with 1% dual antibody) at 37 °C, 5% CO2. The cells were taken from the logarithmic growth phase, digested and prepare cell suspension witha certain concentration, which was inoculated into 96-well plates. 100 µL of cell suspension was added to each well of the 96-well plates, incubated overnight, then different concentrations of compounds were added, and the cells were incubated in the cell culture incubator for 7 days. At the end of incubation, 50 µL of CellTiter-Glo reagent was added to each well, mixed with a microplate and shaked for 2 min, and left at rt for 60 min, then the fluorescence value was read with a Spark® multimode microplate reader. […] Table 2. proliferation inhibitory activity of compounds of the present invention on MDA-MB-436 cells

[1] = target: T1, Recombinant human PARP1 protein (Homo sapiens, UniProt P09874); experiment: biochemical
T1 sequence (P09874 whole entry): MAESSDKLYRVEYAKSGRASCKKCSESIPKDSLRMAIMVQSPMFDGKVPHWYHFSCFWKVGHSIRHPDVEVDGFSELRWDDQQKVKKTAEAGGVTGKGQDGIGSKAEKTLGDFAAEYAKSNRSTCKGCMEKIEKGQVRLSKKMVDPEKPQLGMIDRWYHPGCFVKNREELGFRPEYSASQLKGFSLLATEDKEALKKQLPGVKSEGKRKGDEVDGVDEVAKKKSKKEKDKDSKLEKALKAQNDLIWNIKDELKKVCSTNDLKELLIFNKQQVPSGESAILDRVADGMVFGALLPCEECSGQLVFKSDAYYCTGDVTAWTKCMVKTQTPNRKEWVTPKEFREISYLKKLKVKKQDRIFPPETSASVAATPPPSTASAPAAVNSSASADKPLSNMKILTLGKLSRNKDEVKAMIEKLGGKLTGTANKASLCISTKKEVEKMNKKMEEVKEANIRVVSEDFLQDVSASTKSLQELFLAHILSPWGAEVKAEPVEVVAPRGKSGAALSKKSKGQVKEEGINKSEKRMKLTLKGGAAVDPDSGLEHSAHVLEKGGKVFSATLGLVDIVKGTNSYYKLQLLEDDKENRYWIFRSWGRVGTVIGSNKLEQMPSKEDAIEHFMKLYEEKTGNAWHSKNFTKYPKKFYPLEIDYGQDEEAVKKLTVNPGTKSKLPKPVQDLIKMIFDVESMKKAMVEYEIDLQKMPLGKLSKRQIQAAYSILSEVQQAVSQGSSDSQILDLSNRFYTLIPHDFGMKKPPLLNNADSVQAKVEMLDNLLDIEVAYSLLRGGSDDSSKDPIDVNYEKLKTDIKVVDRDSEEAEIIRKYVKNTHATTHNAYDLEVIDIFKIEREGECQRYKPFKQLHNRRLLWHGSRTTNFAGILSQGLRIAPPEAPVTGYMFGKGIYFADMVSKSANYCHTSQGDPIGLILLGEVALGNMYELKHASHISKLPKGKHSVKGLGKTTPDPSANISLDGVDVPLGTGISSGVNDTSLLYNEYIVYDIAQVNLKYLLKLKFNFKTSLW
Method: (§2) The PARP1/2 inhibitory activity of the compounds of the present invention was tested in an assay using Histone as a substrate.
(§3) Aim of the assay: to test the PARP1/2 enzymatic activity inhibition IC50 values of the compounds of the present application according to established experimental methods.
(§4) 1. Compound Configuration: Dilute the compounds with DMSO in 384-well plates to a 1000-fold final concentration and set aside.
(§5) 1) Dilute Histone with PBS, add 25uL of Histone mixture to each well and incubate for 2 h. 2) Wash each well 5 times using PBST solution. Remove the solution with a clean paper towel.3) Add 75 uL of Blocking buffer to each well and incubate for 1 h at rt. 4) Wash each well 5 times using PBST solution. Remove the solution with a clean paper towel.
(§6) 2) Use 1× Assay buffer to prepare 2.5× final concentration of PARP1 solution. 3) Add 10 uL of enzyme solution to the compound wells and Max control wells; add 10 uL of 1× Assay buffer. […] 6) Centrifuge at 1000 rpm for 60 seconds and incubate at rt for 2 h. 7) Each well was washed 5 times with PBST solution. Remove the solution with a clean paper towel.
(§7) 1) Prepare Streptavidin-HRP solution, add 25 µL to each well, centrifuge at 1000 rpm for 60 sec, and incubate at rt for 30 min. 2) Wash each well 5 times using PBST solution. Remove the solution with a clean paper towel. 3) Add 50 µL of ELISA Chemiluminescent Substrate per well. 4) Centrifuge at 1000 rpm for 60 seconds and read with EnSight after 5 min.
(§8) The inhibition rate was calculated using the following formula: % inhibition = (max signal - compound signal) / (max signal - min signal) × 100, where 'min signal' is the mean value of negative control wells and 'max signal' is the mean value of positive control wells.
(§9) Fitting the quantitative effect curve: using the log value of the concentration as the X-axis and the percentage inhibition as the Y-axis; using the log(inhibitor) vs. response-variable slope method in software GraphPadPrism5 to fit the quantitative effect curve to calculate the IC50 value for the inhibition of the enzyme activity by the compounds of the present invention. The fitting formula is: Y=Bottom+ (Top-Bottom)/(1+10^((logIC50-X)*HillSlope)).

[2] = target: T2, recombinant human PARP2 protein (Homo sapiens, UniProt Q9UGN5); experiment: PARP2 enzymatic inhibitory activity, histone substrate, chemiluminescent ELISA; type: biochemical
T2 construct: purchased BPS 80502
T2 sequence (Q9UGN5 whole entry): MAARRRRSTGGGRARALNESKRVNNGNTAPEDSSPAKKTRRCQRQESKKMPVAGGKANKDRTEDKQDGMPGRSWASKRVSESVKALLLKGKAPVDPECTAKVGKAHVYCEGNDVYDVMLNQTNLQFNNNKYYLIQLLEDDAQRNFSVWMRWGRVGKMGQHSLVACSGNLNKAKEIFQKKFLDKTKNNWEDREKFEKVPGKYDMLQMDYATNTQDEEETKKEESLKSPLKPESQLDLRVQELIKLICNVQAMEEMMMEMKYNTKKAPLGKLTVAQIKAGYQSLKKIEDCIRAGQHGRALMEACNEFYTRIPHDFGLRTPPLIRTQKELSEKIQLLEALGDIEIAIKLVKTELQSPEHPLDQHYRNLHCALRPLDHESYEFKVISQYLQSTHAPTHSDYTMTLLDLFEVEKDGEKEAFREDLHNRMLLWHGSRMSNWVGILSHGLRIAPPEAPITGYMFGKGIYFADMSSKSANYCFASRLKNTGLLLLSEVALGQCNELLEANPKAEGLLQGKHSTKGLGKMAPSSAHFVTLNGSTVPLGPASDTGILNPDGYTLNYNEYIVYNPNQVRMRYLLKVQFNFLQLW
Method: The PARP2 inhibitory activity assay was performed as in Experimental Method 1, except that PARP1 solution in step 2 of "3. Ribosylation reaction" was replaced with recombinant human PARP2 solution, and 500 µM NAD+ was not added in step 5 of the ribosylation reaction. Table 1. IC50 for inhibition of PARP1/2 enzymes by compounds of the present invention

[3] = target: T1, Recombinant human PARP1 protein; experiment: PARP1 enzymatic inhibitory activity, histone substrate, chemiluminescent ELISA; conditions: PARP2 IC50 over PARP1 IC50
Method: as §2, §3, §4, §5, §6, §7, §8, §9

[4] = Preliminary pharmacokinetic test in mice; type: in vivo; conditions: male, ICR; for AUC(0-t) / clearance / half-life: mouse plasma; for bioavailability: plasma, oral, mouse, p.o. 5 mg/kg versus i.v. 1 mg/kg
Method: 1. Healthy ICR mice were administered the tested compounds intravenously (1 mg/kg) or by gavage (5 mg/kg). Nine male mice weighing 30-35 g for each route of administration were randomly divided into three groups of three mice each.
The mice were fasted for 12h before the test and allowed to drink water freely. The mice were fed 4h after the administration.
Intravenous and gavage administration: 0.25h, 0.5h, 1.0h, 2.0h, 3.0h, 4.0h, 6.0h, 8.0h and 24h after administration.
Blood was collected continuously, and 3 animals were collected at each time point. Plasma collection and processing: 30-40 µL of venous blood was collected from the mouse retroorbital venous plexus at the above set time points, placed in an EDTA-K2 test tube, centrifuged at 3500 rpm for 10 min, and plasma was separated and frozen in a -20 °C refrigerator.
The concentration of the compounds in mouse plasma was determined by LC/MS/MS. Pharmacokinetic parameters after administration were calculated using the […] of Phoenix 8.3 software (Pharsight, USA).

[5] = histone substrate, 500 µM NAD+ not added, read-out: PARP2 IC50

Row | Structure (SMILES) | Papp A→B at 2.5 h, 2 µM (MDR1) [×10⁻⁶ cm/s] | Papp B→A at 2.5 h, 2 µM (MDR1) [×10⁻⁶ cm/s] | IC50 (MDA-MB-436 cells) [nM] | IC50 [1] [nM] | IC50 [2, 5] [nM] | PARP1/2 Fold selectivity [3] | also measured
1 | CNC(=O)c1ccc(N2CCN(Cc3ccc4nc(C)c(=O)[nH]c4c3F)CC2)c(F)n1 [AZD-9574] | 19.4 | 19.4 | 15.7 | – | – | – | efflux ratio at 2.5 h, 2 µM (MDR1 (P-gp)): 1
2 | CNC(=O)c1ccc(N2CCN(C(C)c3ccc4c(c3)[nH]c(=O)c3ccnn34)CC2)c(F)n1 (centres unmarked) [Compound 12] | – | – | < 1.52 | 0.57 | 214 | 374.9 | –
3 | CNC(=O)c1ccc(N2CCN(Cc3ccc4c(c3)[nH]c(=O)c3nn(C)cc34)CC2)c(F)n1 [Compound 22] | – | – | 4.6 | 0.8 | 358 | 447.6 | –
4 | CNC(=O)c1ccc(N2CCN(Cc3ccc4c(c3)[nH]c(=O)c3nc(C)oc34)CC2)c(F)n1 [Compound 102] | – | – | 3.7 | 1 | 522 | 521.6 | –
5 | CNC(=O)c1ccc(N2CCN(Cc3ccc4c(c3)[nH]c(=O)c3nc(C)sc34)CC2)c(F)n1 [Compound 103] | – | – | 1.4 | 0.9 | 829 | 922.1 | –
6 | CNC(=O)c1ccc(N2CCN(Cc3ccc4c([nH]c(=O)c5ccnn54)c3F)CC2)c(Cl)n1 [Compound 113] | – | – | < 1.52 | 0.8 | 1300 | 1626.3 | –
7 | CNC(=O)c1ccc(N2CCN(Cc3ccc4c(c3F)NC(=O)N3CC(C)N=C43)CC2)c(F)n1 (centres unmarked) [Compound 131] | – | – | 15.3 | 1.2 | 1280 | 1064 | –
8 | CNC(=O)c1ccc(N2CCN(Cc3ccc4c(c3F)NC(=O)N3C[C@@H](C)N=C43)CC2)c(F)n1 [Compound 132] | 12.8 | 26.8 | 12.1 | 1.5 | 288 | 191.8 | AUC(0-t) ([4]; iv, i.v. 1 mg/kg): 6630 ng·h/mL; clearance ([4]; iv, i.v. 1 mg/kg): 2.8 mL/min/kg; half-life ([4]; iv, i.v. 1 mg/kg): 180 min; bioavailability [4]: 98.7%; AUC(0-t) ([4]; po, p.o. 5 mg/kg): 33100 ng·h/mL; half-life ([4]; po, p.o. 5 mg/kg): 264 min; efflux ratio at 2.5 h, 2 µM (MDR1 (P-gp)): 2.1
9 | CNC(=O)c1ccc(N2CCN(Cc3ccc4c(c3F)NC(=O)N3C4=NC[C@@H]3C)CC2)c(F)n1 [Compound 137] | – | – | 22.6 | 1.8 | 1400 | 466.3 | –
10 | CNC(=O)c1ccc(N2CCN(Cc3ccc4c(c3F)NC(=O)N3CC5(CC5)N=C43)CC2)c(F)n1 [Compound 138] | 14.7 | 17 | 3 | – | – | – | –
11 | CNC(=O)c1ccc(N2CCN(Cc3ccc4c(c3F)NC(=O)N3CCCN=C43)CC2)c(F)n1 [Compound 139] | 16.7 | 21.8 | 10.4 | 1 | – | – | AUC(0-t) ([4]; iv, i.v. 1 mg/kg): 2820 ng·h/mL; clearance ([4]; iv, i.v. 1 mg/kg): 5.9 mL/min/kg; half-life ([4]; iv, i.v. 1 mg/kg): 186 min; bioavailability [4]: 98%; AUC(0-t) ([4]; po, p.o. 5 mg/kg): 13800 ng·h/mL; half-life ([4]; po, p.o. 5 mg/kg): 192 min
12 | CNC(=O)c1ccc(N2CCN(Cc3ccc4c(c3F)NC(=O)N3CCCN=C43)CC2)c(Cl)n1 [Compound 141] | 16.2 | 23.1 | 5.8 | 1.3 | – | – | AUC(0-t) ([4]; iv, i.v. 1 mg/kg): 3020 ng·h/mL; clearance ([4]; iv, i.v. 1 mg/kg): 5.5 mL/min/kg; half-life ([4]; iv, i.v. 1 mg/kg): 72 min; bioavailability [4]: 92.6%; AUC(0-t) ([4]; po, p.o. 5 mg/kg): 14000 ng·h/mL; half-life ([4]; po, p.o. 5 mg/kg): 150 min
13 | CNC(=O)c1ccc(N2CCN(Cc3ccc4c(c3F)NC(=O)N3CC(C)CN=C43)CC2)c(F)n1 (centres unmarked) [Compound 144] | – | – | – | 5.2 | > 10000 | >1923 | –
14 | CNC(=O)c1ccc(N2CCN(Cc3ccc4c(c3F)NC(=O)N3C[C@H](F)CN=C43)CC2)c(F)n1 [Compound 147] | – | – | 2.1 | 1 | 278 | 277.7 | –
15 | CNC(=O)c1ccc(N2CCN(Cc3ccc4c(c3F)NC(=O)N3C[C@@H](F)CN=C43)CC2)c(F)n1 [Compound 149] | – | – | – | 1.6 | – | 557.9 | IC50 [2]: 893 nM
16 | CNC(=O)c1ccc(N2CCN(Cc3ccc4c(c3F)NC(=O)N3C4=NCCC3C)CC2)c(F)n1 (centres unmarked) [Compound 150] | – | – | – | 17.6 | > 10000 | >568 | –
17 | CNC(=O)c1ccc(N2CCN(Cc3ccc4c(c3F)NC(=O)N3C4=NC[C@@H]3C)CC2)c(C)n1 [Compound 155] | – | – | – | 1.46 | 893 | 611.4 | –
18 | CNC(=O)c1ccc(N2CCN(Cc3ccc4c(c3F)NC(=O)N3C4=NC[C@@H]3C)CC2)c(Cl)n1 [Compound 156] | 16.3 | 21.1 | 25 | 1.9 | – | – | –
19 | CNC(=O)c1ccc(N2CCN(Cc3ccc4c(c3F)NC(=O)N3CC5(CC5)N=C43)CC2)c(C)n1 [Compound 157] | 15.1 | 21.6 | 3.6 | 0.5 | – | – | –
20 | CNC(=O)c1ccc(N2CCN(Cc3ccc4c(c3F)NC(=O)N3CC5(CC5)N=C43)CC2)c(Cl)n1 [Compound 158] | 14.7 | 14.1 | 2.2 | 0.48 | – | – | AUC(0-t) ([4]; iv, i.v. 1 mg/kg): 3090 ng·h/mL; clearance ([4]; iv, i.v. 1 mg/kg): 5.5 mL/min/kg; half-life ([4]; iv, i.v. 1 mg/kg): 48 min; bioavailability [4]: 108%; AUC(0-t) ([4]; po, p.o. 5 mg/kg): 11000 ng·h/mL; half-life ([4]; po, p.o. 5 mg/kg): 60 min
21 | CNC(=O)c1ccc(N2CCN(Cc3ccc4c(c3F)NC(=O)N3CC(F)(F)CN=C43)CC2)c(Cl)n1 [Compound 159] | – | – | 2.2 | 0.47 | 97.5 | 207.4 | –
22 | CNC(=O)c1ccc(N2CCN(Cc3ccc4c(c3F)NC(=O)N3CC(F)(F)CN=C43)CC2)c(C)n1 [Compound 160] | 14.3 | 8.78 | 5.7 | 0.59 | – | – | AUC(0-t) ([4]; iv, i.v. 1 mg/kg): 10500 ng·h/mL; clearance ([4]; iv, i.v. 1 mg/kg): 1.6 mL/min/kg; half-life ([4]; iv, i.v. 1 mg/kg): 51.6 min; bioavailability [4]: 70.7%; AUC(0-t) ([4]; po, p.o. 5 mg/kg): 26100 ng·h/mL; half-life ([4]; po, p.o. 5 mg/kg): 54 min
23 | CNC(=O)c1ccc(N2CCN(C(C)c3ccc4c(c3F)NC(=O)N3CC5(CC5)N=C43)CC2)c(F)n1 (centres unmarked) [Compound 173] | – | – | – | 0.95 | 514 | 541.5 | –
24 | O=C(NC1CC1)c1ccc(N2CCN(Cc3ccc4c(c3F)NC(=O)N3CCCN=C43)CC2)c(F)n1 [Compound 182] | – | – | – | 1.83 | 547 | 299 | –
25 | CCNC(=O)c1ccc(N2CCN(Cc3ccc4c(c3F)NC(=O)N3C[C@@H](C)N=C43)CC2)c(Cl)n1 [Compound 185] | – | – | – | 1.09 | 894 | 820.2 | –
26 | N#Cc1ccc(N2CCN(Cc3ccc4c(c3F)NC(=O)N3CCCN=C43)CC2)nc1 [Compound 188] | – | – | – | 1.56 | 728 | 466.3 | –
27 | CNC(=O)c1ccc(N2CCN(Cc3ccc4c(c3)NC(=O)N3CCCN=C43)CC2)c(Cl)n1 [Compound 191] | – | – | – | 0.9 | 296 | 323 | –
28 | C[C@@H]1CN2C(=O)Nc3c(ccc(CN4CCN(c5ccc(C(=O)NC6CC6)nc5Cl)CC4)c3F)C2=N1 [Compound 201] | – | – | – | 1.2 | 1550 | 1324 | –
